# Laboratory results as given in ChEMBL document CHEMBL3991601, “The target landscape of clinical kinase drugs” (Science, 2017).
# Active and inactive are the calls of the source.
# Legend:
# Activin receptor type-2B = Activin receptor type-2B (Homo sapiens, UniProt Q13705)
# Scaffold protein ILK = biological target: T1, Scaffold protein ILK (Homo sapiens, UniProt Q13418)
# T1 sequence (Q13418 whole entry): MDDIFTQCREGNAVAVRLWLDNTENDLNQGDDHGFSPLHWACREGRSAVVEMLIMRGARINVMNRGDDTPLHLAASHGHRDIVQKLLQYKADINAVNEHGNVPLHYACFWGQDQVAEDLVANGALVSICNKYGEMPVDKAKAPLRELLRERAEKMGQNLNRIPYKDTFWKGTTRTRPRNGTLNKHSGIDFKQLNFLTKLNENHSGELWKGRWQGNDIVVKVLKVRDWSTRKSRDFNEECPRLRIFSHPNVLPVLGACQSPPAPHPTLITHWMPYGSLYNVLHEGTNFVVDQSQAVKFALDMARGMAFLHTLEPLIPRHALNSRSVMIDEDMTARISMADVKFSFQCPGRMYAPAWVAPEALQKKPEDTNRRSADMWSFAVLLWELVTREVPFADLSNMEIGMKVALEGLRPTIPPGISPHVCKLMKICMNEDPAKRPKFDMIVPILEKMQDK
# Heme oxygenase 2 = biological target: T2, Heme oxygenase 2 (Homo sapiens, UniProt P30519)
# T2 sequence (P30519 whole entry): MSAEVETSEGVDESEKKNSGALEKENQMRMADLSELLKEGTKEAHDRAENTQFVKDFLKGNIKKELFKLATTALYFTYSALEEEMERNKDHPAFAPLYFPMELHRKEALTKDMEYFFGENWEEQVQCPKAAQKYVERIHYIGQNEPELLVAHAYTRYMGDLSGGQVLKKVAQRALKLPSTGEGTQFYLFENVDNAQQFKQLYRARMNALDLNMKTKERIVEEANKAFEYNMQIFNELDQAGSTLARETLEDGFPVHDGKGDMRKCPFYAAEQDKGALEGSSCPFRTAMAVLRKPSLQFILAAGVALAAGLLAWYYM
# [1] = biological target: Non-receptor tyrosine-protein kinase TYK2 (Homo sapiens, UniProt P29597)
# Sequence of Non-receptor tyrosine-protein kinase TYK2 (P29597 whole entry): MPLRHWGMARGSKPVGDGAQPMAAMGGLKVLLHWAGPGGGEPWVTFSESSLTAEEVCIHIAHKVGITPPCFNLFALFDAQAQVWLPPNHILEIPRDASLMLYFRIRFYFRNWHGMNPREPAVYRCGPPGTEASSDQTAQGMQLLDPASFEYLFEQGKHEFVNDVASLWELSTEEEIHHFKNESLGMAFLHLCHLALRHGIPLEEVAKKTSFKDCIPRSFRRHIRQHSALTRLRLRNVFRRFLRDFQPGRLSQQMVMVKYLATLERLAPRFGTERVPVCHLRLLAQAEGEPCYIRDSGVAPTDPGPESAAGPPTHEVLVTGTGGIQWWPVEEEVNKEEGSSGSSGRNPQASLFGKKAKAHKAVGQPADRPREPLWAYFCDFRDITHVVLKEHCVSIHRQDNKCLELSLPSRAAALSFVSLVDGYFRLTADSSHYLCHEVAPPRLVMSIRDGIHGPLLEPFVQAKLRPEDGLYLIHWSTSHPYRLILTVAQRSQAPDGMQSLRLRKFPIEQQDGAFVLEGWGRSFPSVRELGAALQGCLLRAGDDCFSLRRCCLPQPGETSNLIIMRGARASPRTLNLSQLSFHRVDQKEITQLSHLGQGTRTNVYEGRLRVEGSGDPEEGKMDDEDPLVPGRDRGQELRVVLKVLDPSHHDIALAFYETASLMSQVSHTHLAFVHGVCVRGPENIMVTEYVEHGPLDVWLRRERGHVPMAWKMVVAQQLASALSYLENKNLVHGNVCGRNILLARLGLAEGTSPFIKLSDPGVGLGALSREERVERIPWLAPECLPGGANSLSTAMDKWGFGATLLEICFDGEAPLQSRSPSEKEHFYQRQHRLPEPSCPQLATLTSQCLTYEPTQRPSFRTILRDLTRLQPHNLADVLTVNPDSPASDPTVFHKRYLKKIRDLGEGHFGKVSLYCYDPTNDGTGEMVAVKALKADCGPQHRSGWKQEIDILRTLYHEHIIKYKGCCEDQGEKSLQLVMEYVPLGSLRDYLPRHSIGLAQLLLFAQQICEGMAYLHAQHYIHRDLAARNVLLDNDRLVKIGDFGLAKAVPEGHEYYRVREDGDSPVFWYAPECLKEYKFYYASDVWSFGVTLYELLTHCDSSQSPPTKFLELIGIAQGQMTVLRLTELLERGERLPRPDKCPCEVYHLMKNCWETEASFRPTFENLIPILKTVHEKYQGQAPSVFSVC
# [2] = biological target: Serine/threonine-protein kinase 16 (Homo sapiens, UniProt O75716)
# Sequence of Serine/threonine-protein kinase 16 (O75716 whole entry): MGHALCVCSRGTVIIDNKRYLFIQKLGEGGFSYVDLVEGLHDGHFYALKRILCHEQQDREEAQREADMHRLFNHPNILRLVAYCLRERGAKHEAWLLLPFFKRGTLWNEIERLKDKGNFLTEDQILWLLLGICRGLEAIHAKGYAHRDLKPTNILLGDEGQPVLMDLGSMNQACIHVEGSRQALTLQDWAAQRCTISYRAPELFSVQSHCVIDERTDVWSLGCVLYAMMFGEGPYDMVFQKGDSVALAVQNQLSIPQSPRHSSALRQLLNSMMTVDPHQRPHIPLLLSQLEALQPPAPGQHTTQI
# [3] = biological target: T3, Serine/threonine-protein kinase Nek9 (Homo sapiens, UniProt Q8TD19)
# T3 sequence (Q8TD19 whole entry): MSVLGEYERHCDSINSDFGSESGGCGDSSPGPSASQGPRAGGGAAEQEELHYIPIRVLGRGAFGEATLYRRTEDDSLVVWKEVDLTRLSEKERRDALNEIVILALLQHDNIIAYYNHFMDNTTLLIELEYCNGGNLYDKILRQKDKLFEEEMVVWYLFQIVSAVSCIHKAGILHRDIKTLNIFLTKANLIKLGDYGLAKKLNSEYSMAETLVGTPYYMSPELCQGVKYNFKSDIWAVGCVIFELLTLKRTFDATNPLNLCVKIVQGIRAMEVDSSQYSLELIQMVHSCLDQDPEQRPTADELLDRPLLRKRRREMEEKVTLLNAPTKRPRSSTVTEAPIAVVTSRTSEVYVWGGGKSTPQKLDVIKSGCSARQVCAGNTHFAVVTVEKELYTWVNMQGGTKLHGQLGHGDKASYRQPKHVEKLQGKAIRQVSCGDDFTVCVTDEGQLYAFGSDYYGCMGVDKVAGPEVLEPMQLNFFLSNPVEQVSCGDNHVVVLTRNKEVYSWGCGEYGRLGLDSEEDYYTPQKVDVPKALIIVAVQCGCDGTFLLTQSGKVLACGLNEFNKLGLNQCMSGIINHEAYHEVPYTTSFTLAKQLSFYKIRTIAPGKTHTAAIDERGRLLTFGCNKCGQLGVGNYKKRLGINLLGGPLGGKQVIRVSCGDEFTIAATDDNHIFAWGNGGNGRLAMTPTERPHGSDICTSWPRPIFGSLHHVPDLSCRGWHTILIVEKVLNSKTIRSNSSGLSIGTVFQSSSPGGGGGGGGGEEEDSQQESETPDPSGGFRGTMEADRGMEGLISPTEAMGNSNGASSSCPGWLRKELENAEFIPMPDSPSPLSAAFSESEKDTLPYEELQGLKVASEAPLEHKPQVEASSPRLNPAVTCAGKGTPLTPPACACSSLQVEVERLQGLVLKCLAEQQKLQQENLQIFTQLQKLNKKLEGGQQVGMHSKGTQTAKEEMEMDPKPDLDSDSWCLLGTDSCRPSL
# [4] = biological target: T4, Dual specificity mitogen-activated protein kinase kinase 3 (Homo sapiens, UniProt P46734)
# T4 sequence (P46734 whole entry): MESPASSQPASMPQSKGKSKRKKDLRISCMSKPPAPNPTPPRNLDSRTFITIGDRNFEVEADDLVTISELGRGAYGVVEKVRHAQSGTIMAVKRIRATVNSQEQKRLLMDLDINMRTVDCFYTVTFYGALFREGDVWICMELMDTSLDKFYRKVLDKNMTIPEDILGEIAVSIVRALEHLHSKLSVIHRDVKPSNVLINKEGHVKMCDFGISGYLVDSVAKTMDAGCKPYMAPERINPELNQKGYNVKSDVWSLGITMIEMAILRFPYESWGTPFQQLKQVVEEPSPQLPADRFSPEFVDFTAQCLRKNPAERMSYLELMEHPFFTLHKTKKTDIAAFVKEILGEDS
# Activated CDC42 kinase 1 = Activated CDC42 kinase 1 (Homo sapiens, UniProt Q07912)
# Sequence of Activated CDC42 kinase 1 (Q07912 whole entry): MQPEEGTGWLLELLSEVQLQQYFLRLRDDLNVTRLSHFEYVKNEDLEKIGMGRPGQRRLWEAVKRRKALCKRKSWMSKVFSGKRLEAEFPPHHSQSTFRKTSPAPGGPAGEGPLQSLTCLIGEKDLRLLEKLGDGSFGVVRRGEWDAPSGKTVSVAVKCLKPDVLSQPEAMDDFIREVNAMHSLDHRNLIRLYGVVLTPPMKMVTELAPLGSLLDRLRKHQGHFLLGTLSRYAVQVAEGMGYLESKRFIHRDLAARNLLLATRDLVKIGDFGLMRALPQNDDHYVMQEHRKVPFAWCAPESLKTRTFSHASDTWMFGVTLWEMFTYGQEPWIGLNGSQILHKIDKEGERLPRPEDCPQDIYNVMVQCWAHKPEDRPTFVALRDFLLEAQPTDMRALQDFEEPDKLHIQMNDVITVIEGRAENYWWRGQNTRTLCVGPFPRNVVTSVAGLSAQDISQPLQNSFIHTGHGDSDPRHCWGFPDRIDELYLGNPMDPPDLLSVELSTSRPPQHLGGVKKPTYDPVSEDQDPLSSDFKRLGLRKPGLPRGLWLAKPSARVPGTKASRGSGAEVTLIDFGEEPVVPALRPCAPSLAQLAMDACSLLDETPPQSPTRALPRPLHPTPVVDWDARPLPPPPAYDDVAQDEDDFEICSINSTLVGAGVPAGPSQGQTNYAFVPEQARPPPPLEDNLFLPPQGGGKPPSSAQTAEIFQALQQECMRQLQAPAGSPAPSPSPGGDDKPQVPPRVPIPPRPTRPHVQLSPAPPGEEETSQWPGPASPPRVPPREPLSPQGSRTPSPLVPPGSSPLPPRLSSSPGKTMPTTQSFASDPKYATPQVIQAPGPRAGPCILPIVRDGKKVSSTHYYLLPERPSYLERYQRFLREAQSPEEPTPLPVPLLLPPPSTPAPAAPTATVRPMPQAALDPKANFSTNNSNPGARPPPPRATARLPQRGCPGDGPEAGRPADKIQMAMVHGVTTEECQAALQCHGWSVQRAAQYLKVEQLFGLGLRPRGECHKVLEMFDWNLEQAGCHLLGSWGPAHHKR
# [5] = biological target: T5, Signal recognition particle receptor subunit alpha (Homo sapiens, UniProt P08240)
# T5 sequence (P08240 whole entry): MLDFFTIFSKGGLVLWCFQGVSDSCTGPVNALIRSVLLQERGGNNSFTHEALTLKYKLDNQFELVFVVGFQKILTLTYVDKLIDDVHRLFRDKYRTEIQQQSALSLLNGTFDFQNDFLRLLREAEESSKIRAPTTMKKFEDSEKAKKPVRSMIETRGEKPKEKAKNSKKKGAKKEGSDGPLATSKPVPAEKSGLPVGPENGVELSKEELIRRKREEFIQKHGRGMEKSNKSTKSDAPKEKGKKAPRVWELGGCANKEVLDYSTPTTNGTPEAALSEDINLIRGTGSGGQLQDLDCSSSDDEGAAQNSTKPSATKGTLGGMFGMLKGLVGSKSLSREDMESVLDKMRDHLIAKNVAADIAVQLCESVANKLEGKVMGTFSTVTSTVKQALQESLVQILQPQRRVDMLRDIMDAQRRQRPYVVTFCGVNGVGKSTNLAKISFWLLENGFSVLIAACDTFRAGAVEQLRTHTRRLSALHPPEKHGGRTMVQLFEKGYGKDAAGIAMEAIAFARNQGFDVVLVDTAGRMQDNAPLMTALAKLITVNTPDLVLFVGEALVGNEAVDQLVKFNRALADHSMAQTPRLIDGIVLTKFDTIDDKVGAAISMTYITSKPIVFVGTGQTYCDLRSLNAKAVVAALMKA
# Note: in the data inactive means no Kd found up to 30 µM.
# Sequence of Activin receptor type-2B (Q13705 whole entry): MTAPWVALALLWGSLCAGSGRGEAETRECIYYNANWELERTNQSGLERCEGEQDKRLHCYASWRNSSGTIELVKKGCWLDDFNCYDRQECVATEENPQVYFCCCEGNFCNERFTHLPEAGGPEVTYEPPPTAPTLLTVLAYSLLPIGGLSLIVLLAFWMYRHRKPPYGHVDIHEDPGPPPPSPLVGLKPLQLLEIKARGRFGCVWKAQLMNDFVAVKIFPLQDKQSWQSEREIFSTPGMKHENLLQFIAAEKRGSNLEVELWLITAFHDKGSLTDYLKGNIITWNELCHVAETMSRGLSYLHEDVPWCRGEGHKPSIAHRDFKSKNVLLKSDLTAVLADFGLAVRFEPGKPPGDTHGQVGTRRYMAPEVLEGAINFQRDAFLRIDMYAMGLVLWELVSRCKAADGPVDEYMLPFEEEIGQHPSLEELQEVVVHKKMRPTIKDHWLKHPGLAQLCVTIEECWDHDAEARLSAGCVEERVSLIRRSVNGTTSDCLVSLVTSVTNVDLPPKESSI
Compound,Kd (Activin receptor type-2B),Kd (Scaffold protein ILK),Kd (Heme oxygenase 2),Kd [1],Kd [2],Kd [3],Kd [4],Kd (Activated CDC42 kinase 1),Kd [5]
Cc1cc(C(=O)Nc2cc(Oc3ccc4nc(NC(=O)C5CC5)cn4n3)ccc2C)n(C)n1 [TAK-593],> 30 µM (inactive),> 30 µM (inactive),> 30 µM (inactive),> 30 µM (inactive),> 30 µM (inactive),> 30 µM (inactive),> 30 µM (inactive),> 30 µM (inactive),> 30 µM (inactive)
COc1cc2ncnc(Nc3ccc(O)cc3)c2cc1OC [WHI-P131],> 30 µM (inactive),> 30 µM (inactive),> 30 µM (inactive),> 30 µM (inactive),> 30 µM (inactive),> 30 µM (inactive),> 30 µM (inactive),> 30 µM (inactive),> 30 µM (inactive)
O=C(O)c1ccc2c(c1)nc(Nc1cccc(Cl)c1)c1ccncc12 [SILMITASERTIB],> 30 µM (inactive),> 30 µM (inactive),> 30 µM (inactive),2.38 µM (active),> 30 µM (inactive),> 30 µM (inactive),> 30 µM (inactive),> 30 µM (inactive),> 30 µM (inactive)
S=C(NCc1ccc2c(c1)OCO2)N1CCN(c2ncnc3c2oc2ccccc23)CC1 [AMUVATINIB],> 30 µM (inactive),> 30 µM (inactive),> 30 µM (inactive),> 30 µM (inactive),> 30 µM (inactive),> 30 µM (inactive),> 30 µM (inactive),> 30 µM (inactive),> 30 µM (inactive)
CNC(=O)c1cc(COc2nnc(Nc3ccc(Cl)cc3)c3ccoc23)ccn1 [TELATINIB],> 30 µM (inactive),0.032 µM,> 30 µM (inactive),> 30 µM (inactive),> 30 µM (inactive),> 30 µM (inactive),> 30 µM (inactive),> 30 µM (inactive),> 30 µM (inactive)
COc1cccc2cc(-c3nc([C@H]4CC[C@H](C(=O)O)CC4)n4ncnc(N)c34)[nH]c12 [OSI-027],> 30 µM (inactive),> 30 µM (inactive),> 30 µM (inactive),> 30 µM (inactive),> 30 µM (inactive),> 30 µM (inactive),> 30 µM (inactive),> 30 µM (inactive),> 30 µM (inactive)
Cc1ccc(C(=O)Nc2ccc(Oc3cc4cnn(C)c4cc3-c3cn[nH]c3)c(F)c2)c(=O)n1-c1ccc(F)cc1 [MERESTINIB],> 30 µM (inactive),> 30 µM (inactive),> 30 µM (inactive),> 30 µM (inactive),> 30 µM (inactive),> 30 µM (inactive),> 30 µM (inactive),> 30 µM (inactive),> 30 µM (inactive)
CNC(=O)c1cccc(-c2ccc3c(N4CCOC[C@@H]4C)nc(N4CCOC[C@@H]4C)nc3n2)c1 [VISTUSERTIB],> 30 µM (inactive),> 30 µM (inactive),> 30 µM (inactive),> 30 µM (inactive),> 30 µM (inactive),> 30 µM (inactive),> 30 µM (inactive),> 30 µM (inactive),> 30 µM (inactive)
c1cc(OCCN2CCCCC2)cc(-c2n[nH]c3ccc(-c4nc[nH]n4)cc23)c1 [CC-401],> 30 µM (inactive),> 30 µM (inactive),> 30 µM (inactive),> 30 µM (inactive),> 30 µM (inactive),> 30 µM (inactive),> 30 µM (inactive),> 30 µM (inactive),> 30 µM (inactive)
C=CC(=O)Nc1cc(Nc2nccc(-c3cn(C)c4ccccc34)n2)c(OC)cc1N(C)CCN(C)C [OSIMERTINIB],> 30 µM (inactive),> 30 µM (inactive),> 30 µM (inactive),> 30 µM (inactive),> 30 µM (inactive),> 30 µM (inactive),> 30 µM (inactive),> 30 µM (inactive),> 30 µM (inactive)
COc1ccc2c(OCc3nnc4ccc(-c5ccccc5)nn34)ccnc2c1 [AMG-208],> 30 µM (inactive),> 30 µM (inactive),> 30 µM (inactive),> 30 µM (inactive),> 30 µM (inactive),> 30 µM (inactive),> 30 µM (inactive),> 30 µM (inactive),> 30 µM (inactive)
O=c1[nH]c([C@@H]2CCCN2)nc2c1oc1ccc(Cl)cc12,> 30 µM (inactive),> 30 µM (inactive),> 30 µM (inactive),> 30 µM (inactive),> 30 µM (inactive),> 30 µM (inactive),> 30 µM (inactive),> 30 µM (inactive),> 30 µM (inactive)
Cc1c(Cn2c(C)nc3c(C(=O)O)cc(N4CCOCC4)cc32)cccc1C(F)(F)F [GSK-2636771],> 30 µM (inactive),> 30 µM (inactive),> 30 µM (inactive),> 30 µM (inactive),> 30 µM (inactive),> 30 µM (inactive),> 30 µM (inactive),> 30 µM (inactive),> 30 µM (inactive)
Cn1cc(-c2[nH]c3cc(NC(=O)[C@H](N)C4CCCCC4)cc4c3c2C=NNC4=O)cn1,> 30 µM (inactive),> 30 µM (inactive),> 30 µM (inactive),> 30 µM (inactive),> 30 µM (inactive),> 30 µM (inactive),> 30 µM (inactive),> 30 µM (inactive),> 30 µM (inactive)
COCCN1CCN(Cc2ccc(-c3n[nH]c4c3C(=O)c3c(NC(=O)NN5CCOCC5)cccc3-4)cc2)CC1 [RGB-286638],> 30 µM (inactive),> 30 µM (inactive),> 30 µM (inactive),> 30 µM (inactive),0.515 µM,> 30 µM (inactive),> 30 µM (inactive),> 30 µM (inactive),> 30 µM (inactive)
